Results: article PMC8392721 (Journal of medicinal chemistry, 2021)

Columns and labels:
[1] = molecular target: T1, hNatA (Homo sapiens, UniProt P41227); assay: Selectivity assay, NatA; assay type: biochemical
T1 sequence (P41227 1-160 limits assumed): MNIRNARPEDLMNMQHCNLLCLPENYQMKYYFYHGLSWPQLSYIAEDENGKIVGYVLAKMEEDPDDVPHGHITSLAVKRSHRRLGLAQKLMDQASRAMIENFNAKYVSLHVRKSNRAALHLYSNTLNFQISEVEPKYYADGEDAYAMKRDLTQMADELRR
T1 sequence (Q9BXJ9 1-866 partner): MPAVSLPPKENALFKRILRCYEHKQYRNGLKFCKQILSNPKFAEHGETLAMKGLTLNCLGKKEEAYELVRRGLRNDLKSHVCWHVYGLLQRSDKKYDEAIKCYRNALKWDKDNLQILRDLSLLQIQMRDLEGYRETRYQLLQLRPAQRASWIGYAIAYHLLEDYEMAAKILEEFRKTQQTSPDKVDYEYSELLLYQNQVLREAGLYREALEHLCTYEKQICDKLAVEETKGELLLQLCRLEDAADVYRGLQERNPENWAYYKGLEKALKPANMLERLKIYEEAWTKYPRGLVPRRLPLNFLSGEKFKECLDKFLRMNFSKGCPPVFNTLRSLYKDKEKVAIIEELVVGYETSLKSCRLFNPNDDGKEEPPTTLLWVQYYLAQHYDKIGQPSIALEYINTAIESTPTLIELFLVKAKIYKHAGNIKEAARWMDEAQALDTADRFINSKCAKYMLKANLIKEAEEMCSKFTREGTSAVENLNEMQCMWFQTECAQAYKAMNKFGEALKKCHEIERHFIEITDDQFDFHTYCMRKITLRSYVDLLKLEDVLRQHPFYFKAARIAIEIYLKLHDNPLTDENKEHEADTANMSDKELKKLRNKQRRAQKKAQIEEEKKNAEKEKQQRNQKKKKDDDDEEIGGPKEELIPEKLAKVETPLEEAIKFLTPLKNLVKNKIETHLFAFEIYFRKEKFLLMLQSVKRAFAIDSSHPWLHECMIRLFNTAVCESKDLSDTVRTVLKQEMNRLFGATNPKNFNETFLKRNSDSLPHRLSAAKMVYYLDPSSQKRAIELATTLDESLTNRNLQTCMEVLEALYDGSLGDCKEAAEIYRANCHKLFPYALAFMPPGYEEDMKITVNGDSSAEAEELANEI

[2] = molecular target: T2, hMOF (Homo sapiens, UniProt Q9H7Z6); assay: Selectivity assay, hMOF; assay type: biochemical
T2 sequence (Q9H7Z6 1-458): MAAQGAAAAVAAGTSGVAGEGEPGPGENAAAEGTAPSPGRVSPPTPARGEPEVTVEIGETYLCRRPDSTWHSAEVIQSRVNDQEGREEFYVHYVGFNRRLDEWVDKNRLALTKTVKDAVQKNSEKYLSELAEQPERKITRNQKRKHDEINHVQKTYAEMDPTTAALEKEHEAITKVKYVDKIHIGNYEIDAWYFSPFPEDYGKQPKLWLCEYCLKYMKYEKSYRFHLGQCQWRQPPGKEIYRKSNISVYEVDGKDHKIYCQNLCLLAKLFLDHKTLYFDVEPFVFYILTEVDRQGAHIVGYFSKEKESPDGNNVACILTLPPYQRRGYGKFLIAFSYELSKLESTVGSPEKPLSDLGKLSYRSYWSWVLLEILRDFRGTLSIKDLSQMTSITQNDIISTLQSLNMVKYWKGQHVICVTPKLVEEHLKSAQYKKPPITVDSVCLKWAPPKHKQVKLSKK

[3] = molecular target: T3, hNatD (Homo sapiens, UniProt Q86UY6); conditions: radioactive assay; acetyl versus propionyl linker, tripeptide SGR
[4] = molecular target: hNatB (Homo sapiens, UniProt P61599)
Chain of hNatB (P61599 1-163 limits assumed): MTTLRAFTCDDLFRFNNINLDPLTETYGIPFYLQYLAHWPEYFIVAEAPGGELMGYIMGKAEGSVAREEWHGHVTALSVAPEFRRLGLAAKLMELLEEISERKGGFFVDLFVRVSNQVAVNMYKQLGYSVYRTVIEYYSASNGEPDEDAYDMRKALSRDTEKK
Chain of hNatB (Q14CX7 whole entry partner): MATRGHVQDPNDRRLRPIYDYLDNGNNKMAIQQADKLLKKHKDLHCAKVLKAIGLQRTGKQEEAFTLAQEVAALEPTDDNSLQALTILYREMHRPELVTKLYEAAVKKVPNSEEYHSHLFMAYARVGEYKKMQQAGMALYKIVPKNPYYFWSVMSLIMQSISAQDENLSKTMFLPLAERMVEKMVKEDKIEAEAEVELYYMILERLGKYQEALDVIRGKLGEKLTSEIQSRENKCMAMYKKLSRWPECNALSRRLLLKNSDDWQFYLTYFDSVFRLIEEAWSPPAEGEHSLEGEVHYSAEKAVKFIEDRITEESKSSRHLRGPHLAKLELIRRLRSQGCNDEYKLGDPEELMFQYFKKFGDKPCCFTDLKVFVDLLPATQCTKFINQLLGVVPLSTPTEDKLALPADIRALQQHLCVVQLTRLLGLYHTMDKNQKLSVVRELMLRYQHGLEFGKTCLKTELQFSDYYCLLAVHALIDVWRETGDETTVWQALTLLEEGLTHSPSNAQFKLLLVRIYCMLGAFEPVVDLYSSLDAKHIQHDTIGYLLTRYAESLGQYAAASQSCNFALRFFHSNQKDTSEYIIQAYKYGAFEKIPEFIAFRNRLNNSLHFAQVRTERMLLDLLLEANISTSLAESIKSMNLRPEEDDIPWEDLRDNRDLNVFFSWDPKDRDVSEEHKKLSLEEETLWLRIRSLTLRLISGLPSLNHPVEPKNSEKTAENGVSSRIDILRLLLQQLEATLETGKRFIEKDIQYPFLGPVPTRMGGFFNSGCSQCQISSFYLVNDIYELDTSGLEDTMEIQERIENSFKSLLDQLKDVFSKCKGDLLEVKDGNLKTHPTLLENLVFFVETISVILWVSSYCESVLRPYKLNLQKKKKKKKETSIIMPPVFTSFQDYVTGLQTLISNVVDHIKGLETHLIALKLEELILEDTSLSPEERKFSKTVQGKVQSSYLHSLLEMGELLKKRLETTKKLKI

[5] = molecular target: SpNatC (Schizosaccharomyces pombe, UniProt O74311); conditions: at 10 μM; n = 3
Chain of SpNatC (Schizosaccharomyces pombe, UniProt O74311) (O74311 whole entry): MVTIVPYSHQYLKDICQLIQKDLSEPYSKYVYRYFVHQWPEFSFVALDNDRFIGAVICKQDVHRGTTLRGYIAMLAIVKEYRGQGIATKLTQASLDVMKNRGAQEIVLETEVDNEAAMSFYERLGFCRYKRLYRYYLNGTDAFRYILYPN

[6] = test system: SpNatC; conditions: from no inhibition at 10 μM
[7] = molecular target: hNatE (Homo sapiens, UniProt Q9GZZ1)
Chain of hNatE (Q9GZZ1 whole entry, one chain of several): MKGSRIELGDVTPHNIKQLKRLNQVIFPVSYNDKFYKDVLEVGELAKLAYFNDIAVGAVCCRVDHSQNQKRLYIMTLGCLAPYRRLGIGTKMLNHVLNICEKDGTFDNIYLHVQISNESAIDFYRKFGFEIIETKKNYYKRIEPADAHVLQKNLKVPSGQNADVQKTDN

[8] = molecular target: PCAF (Homo sapiens, UniProt Q92831)
Chain of PCAF (Q92831 whole entry): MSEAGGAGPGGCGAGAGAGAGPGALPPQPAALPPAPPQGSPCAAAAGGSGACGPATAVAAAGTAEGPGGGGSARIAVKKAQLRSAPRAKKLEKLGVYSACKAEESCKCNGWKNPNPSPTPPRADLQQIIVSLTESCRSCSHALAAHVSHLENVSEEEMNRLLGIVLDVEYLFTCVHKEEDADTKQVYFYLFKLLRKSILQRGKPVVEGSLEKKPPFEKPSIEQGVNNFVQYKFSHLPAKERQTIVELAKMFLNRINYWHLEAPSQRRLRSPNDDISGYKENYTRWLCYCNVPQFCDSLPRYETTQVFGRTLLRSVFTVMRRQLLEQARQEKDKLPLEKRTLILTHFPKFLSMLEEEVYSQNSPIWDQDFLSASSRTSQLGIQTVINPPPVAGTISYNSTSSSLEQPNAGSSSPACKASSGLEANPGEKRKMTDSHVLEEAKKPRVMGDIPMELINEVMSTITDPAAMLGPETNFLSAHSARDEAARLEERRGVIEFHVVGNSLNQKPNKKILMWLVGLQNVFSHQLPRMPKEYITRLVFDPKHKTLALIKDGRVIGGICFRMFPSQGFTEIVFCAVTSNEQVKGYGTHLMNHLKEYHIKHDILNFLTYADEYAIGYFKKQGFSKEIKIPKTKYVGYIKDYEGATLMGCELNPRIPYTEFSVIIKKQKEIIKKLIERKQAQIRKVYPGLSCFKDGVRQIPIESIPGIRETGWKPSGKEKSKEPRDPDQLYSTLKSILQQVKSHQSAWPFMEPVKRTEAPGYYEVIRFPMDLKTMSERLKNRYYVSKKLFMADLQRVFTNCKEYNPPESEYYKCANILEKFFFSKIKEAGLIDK

[9] = molecular target: NatD (Homo sapiens, UniProt Q86UY6); assay: biochemical
[10] = molecular target: T3, hNatD; assay: biochemical

Structure (SMILES): CC(C)(COP(=O)(O)OP(=O)(O)OC[C@H]1O[C@@H](n2cnc3c(N)ncnc32)[C@H](O)[C@@H]1OP(=O)(O)O)[C@@H](O)C(=O)NCCC(=O)NCCSCC(=O)N[C@@H](CO)C(=O)NCC(=O)N[C@@H](CCCNC(=N)N)C(N)=O [Compound 7, CoA-C2-SGR]
- IC50 [1]: > 100 nM
- IC50 [2]: > 100 nM
- fold more potent than 8 [3]: 2 fold
- inhibition towards NatB ([4]; at 10 μM, n = 3): did not show any inhibition
- selectivity for NatD over NatB ([4]; from no inhibition at 10 μM): over 10,000 fold
- inhibition towards NatC [5]: did not show any inhibition
- selectivity for NatD over NatC [6]: over 10,000 fold
- inhibition towards NatE ([7]; at 10 μM, n = 3): did not show any inhibition
- selectivity for NatD over NatE ([7]; from no inhibition at 10 μM): over 10,000 fold
- inhibition towards PCAF ([8]; at 10 μM, n = 3): did not show any inhibition
- selectivity for NatD over PCAF ([8]; from no inhibition at 10 μM): over 10,000 fold
- IC50 [9]: 29 ± 5.6 nM
- IC50 [10]: 16 ± 4.9 nM
